Assay: Tacrolimus tissue pharmacokinetics, oral versus intra-cecal ingestible device delivery
Format: in vivo, Yorkshire-Cross farm swine
Conditions: swine, intra-cecal as compared to oral, 12 hours post-dose
Procedure: The primary objective of this study was to compare the tissue, plasma, rectal sample, and GI content pharmacokinetics of tacrolimus through oral versus intra-cecal ingestible device delivery in normal Yorkshire-Cross farm swine.
No further randomization procedure was employed.
Animals in Group 1 received an ingestible device containing 0.8 mL of vehicle solution (80% alcohol, 20% HCO-60). Animals in Group 2 received orally […] liquid formulation of tacrolimus at 4 mg/0.8 mL per animal (Prograf: 5 mg/mL). Animals in Group 3 received intra-cecally an ingestible device containing tacrolimus at 1 mg in 0.8 mL per ingestible device. […]
Approximately 200˜400 mg of rectal content were collected, if available, with a fecal swab (Copan Diagnostics Nylon Flocked Dry Swabs, 502CS01). The fecal swab was pre-weighed and weighed after collection in the collection tube (Sterile Tube and Cap No Media, PFPM913S), and the sample weight was recorded. […]
For tissue necropsy, small intestine fluid and cecal fluid were collected separately from all the animals into two separate square plastic bottles, and stored at −20° C. The length and diameter of the cecum and the colon was measured from one animal in each group and recorded for reference. […] All samples were weighed, and the tissue sample weights were recorded. […]

- mean concentration in the cecum tissue and the proximate colon tissue (FIG. 76): higher
SMILES: C=CC[C@@H]1/C=C(\C)C[C@H](C)C[C@H](OC)[C@H]2O[C@@](O)(C(=O)C(=O)N3CCCC[C@H]3C(=O)O[C@H](/C(C)=C/[C@@H]3CC[C@@H](O)[C@H](OC)C3)[C@H](C)[C@@H](O)CC1=O)[C@H](C)C[C@@H]2OC [tacrolimus]

From patent US20230019619A1, “TREATMENT OF A DISEASE OF THE GASTROINTESTINAL TRACT WITH A TLR MODULATOR” (BIORA THERAPEUTICS, INC., priority 2016, published 2023)
